Measured values taken from publication PMC10046037, “GABRG2 Variants Associated with Febrile Seizures” (Biomolecules, 2023).

Target: T1, α1β3γ2 GABAA receptor, γ2R408K variant (Homo sapiens, UniProt P14867+P18507+P28472, R408K)
T1 construct: expressed in transfected cells; host or cells: HEK293T
T1 sequence (P14867 28-456): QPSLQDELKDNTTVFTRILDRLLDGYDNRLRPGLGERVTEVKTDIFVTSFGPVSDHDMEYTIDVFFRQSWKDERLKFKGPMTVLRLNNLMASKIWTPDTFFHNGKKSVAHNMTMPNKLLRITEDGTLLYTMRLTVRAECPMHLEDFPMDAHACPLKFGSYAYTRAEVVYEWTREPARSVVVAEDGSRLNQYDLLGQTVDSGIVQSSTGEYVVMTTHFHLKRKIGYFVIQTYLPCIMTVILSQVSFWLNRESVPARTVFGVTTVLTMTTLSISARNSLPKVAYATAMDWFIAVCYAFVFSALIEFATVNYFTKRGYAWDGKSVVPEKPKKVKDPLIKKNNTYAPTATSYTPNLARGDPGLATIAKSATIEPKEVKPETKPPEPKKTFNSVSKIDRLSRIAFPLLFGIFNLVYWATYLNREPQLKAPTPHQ
T1 sequence (P28472 26-473 isoform P28472-2): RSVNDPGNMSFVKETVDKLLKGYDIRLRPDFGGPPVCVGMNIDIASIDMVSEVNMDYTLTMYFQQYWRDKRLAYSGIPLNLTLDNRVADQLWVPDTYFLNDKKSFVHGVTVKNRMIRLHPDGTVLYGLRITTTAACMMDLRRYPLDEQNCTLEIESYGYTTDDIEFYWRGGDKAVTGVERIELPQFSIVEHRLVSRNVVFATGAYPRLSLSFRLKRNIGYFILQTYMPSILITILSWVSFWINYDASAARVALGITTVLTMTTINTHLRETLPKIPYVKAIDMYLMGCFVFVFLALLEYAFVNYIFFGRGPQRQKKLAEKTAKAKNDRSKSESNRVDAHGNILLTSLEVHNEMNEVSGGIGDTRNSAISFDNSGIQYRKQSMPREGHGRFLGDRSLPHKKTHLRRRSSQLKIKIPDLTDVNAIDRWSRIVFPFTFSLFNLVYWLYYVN
T1 sequence (P18507 40-475 R408K): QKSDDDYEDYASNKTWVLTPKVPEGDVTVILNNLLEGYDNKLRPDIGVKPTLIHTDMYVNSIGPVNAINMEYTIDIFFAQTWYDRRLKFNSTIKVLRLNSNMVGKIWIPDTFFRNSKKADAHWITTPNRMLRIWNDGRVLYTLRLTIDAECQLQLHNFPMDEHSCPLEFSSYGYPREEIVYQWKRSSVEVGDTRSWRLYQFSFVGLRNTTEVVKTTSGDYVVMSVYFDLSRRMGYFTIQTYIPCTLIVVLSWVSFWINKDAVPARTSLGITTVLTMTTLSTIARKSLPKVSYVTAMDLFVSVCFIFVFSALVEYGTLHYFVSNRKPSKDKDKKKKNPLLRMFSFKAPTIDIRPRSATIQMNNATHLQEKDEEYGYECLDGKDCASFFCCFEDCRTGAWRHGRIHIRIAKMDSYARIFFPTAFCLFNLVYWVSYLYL
Assay: Automated patch clamp of GABA-elicited currents (SyncroPatch 384PE), γ2R408K
Format: cell-based
Conditions: 1 mM GABA for 5 ms, HEK293T, mean
Protocol: The coding sequences of human α1 (GABRA1, NM_000806), β3 (GABRB3, NM_021912), and γ2 (GABRG2, NM_198904.2) GABAAR subunits were subcloned into the pcDNA3.1 expression vectors (Invitrogen, Waltham, MA, USA).
HEK293T cells (ATCC, CRL-11268) were cultured at 37 °C in a humidified 5% CO2 incubator and maintained in Dulbecco’s modified Eagle’s medium (Invitrogen) supplemented with 10% fetal bovine serum (Life Technologies, Carlsbad, CA, USA), and 100 IU/mL of penicillin/streptomycin (Life Technologies). For the expression experiments, 4 × 10^5 cells were transfected using polyethylenimine (PEI) reagent (40 kD, Polysciences, Warrington, PA, USA) at a DNA: to transfection reagent ratio of 1:2.5 and harvested 36 h after transfection. To express WT and variant α1β3γ2 receptors, a total of 3 µg of α1, β3, and γ2 (WT or mutant) subunit cDNAs were transfected at a ratio of 1:1:1 into 60 mm culture dishes. For the mock-transfected condition, an empty pcDNA3.1 vector was added for a final cDNA transfection amount of 3 μg. For the electrophysiology experiments, 2.5 × 10^5 cells were plated in 100 mm culture dishes and transfected after 24 h with 3 μg of cDNA of each α1, β3, γ2 (wild-type or mutant) subunit, using X-tremeGENE HP DNA transfection Reagent (Roche Diagnostics, Basel, Switzerland), following the manufacturer’s protocol. Recordings were obtained forty-eight hours after transfection.
Whole-cell patch clamp recordings were conducted according to the manufacturer’s standard procedure for the SyncroPatch 384 [31]. […] Using PatchControl 384, electrophysiological parameters, such as seal resistance, capacitance, and series resistance, were determined for each well after the application of a test pulse, and subsequently monitored over time. […] The currents were normalized to the maximal response of each well, and the concentration–response curves were calculated from single-point additions. The EC50 values for each variant or wild-type receptor were calculated across multiple wells for each experimental condition.

Deactivation (-80 mV): 165.4 ms | IMAX (maximal GABA-evoked peak current): 0.22 nA | Rise Time (10–90% rise time): 40.23 ms
SMILES: NCCCC(=O)O [GABA, γ-aminobutyric acid]
